The test has as its target T1, DppA1 (Pseudomonas aeruginosa, UniProt A0A0H2ZGV2).
T1 construct: C-terminal TwinStrepTag, codon-optimized gene, periplasmic expression in E. coli BL21 (pET22b), StrepTrap purified
Description: differential scanning fluorimetry (SYPRO Orange). The test is classed as binding. The following applies: 10 µM protein, 250 µM peptide, PBS. On the technique in general: Differential scanning fluorimetry follows unfolding on heating by fluorescence.

Results on one compound are retold here after paper PMC12728205, “The solute-binding proteins DppA1–5 of Pseudomonas aeruginosa have distinct substrate profiles” (Scientific Reports, 2025).

Peptide text beside a SMILES is read from it.

As usually defined, the ΔTm is the shift of the melting midpoint relative to a reference.

T1 sequence (A0A0H2ZGV2 30-537): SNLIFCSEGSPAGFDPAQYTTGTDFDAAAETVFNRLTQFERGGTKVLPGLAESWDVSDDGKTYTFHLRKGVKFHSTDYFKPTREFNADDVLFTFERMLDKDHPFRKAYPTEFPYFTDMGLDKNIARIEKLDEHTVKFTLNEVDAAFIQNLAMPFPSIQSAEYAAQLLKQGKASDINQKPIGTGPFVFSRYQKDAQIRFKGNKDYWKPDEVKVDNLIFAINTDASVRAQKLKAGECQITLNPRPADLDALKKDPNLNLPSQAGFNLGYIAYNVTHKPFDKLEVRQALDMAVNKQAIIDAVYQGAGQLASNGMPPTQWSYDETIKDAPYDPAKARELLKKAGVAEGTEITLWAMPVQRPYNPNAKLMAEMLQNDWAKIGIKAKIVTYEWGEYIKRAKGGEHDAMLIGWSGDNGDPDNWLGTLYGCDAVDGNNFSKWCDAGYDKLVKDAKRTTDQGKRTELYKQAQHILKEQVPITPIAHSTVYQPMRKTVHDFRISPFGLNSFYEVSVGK

With `C[C@H](N)C(=O)NCC(=O)O` [Ala-Gly] (H-Ala-Gly-OH), the ΔTm was 8.6 °C.
